Read-outs that look alike come from different tables or passages of the source.
Tests used:
Type in all cases: in vivo
[1] = test system: bermudagrass (Cynodon dactylon); assay: Test C pre/postemergence; conditions: Cynodon dactylon; for pest or weed control at 16 g/ha: 16 g ai/ha; for pest or weed control at 31 g/ha: 31 g ai/ha; for pest or weed control at 62 g/ha: 62 g ai/ha; for pest or weed control at 125 g/ha: 125 g ai/ha
In short: (§1)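 We sprayed seeded pots preemergence and 2–18 cm seedlings postemergence with test chemicals in a non-phytotoxic solvent mixture including surfactant. Greenhouse plants were visually compared with untreated controls at 12 to 14 days and scored 0 (no effect) to 100 (complete control).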

[2] = test system: giant foxtail (Setaria faberii); assay: Test C pre/postemergence; conditions: Setaria faberi; for pest or weed control at 125 g/ha: 125 g ai/ha; for pest or weed control at 16 g/ha: 16 g ai/ha; for pest or weed control at 31 g/ha: 31 g ai/ha; for pest or weed control at 62 g/ha: 62 g ai/ha
In short: as §1

[3] = test system: johnsongrass (Sorghum halepense); assay: Test C pre/postemergence; conditions: Sorghum halepense; for pest or weed control at 16 g/ha: 16 g ai/ha; for pest or weed control at 31 g/ha: 31 g ai/ha; for pest or weed control at 62 g/ha: 62 g ai/ha; for pest or weed control at 125 g/ha: 125 g ai/ha
In short: as §1

[4] = test system: soybean (Glycine max); assay: Test C pre/postemergence; conditions: Glycine max; for plant injury at 16 g/ha: 16 g ai/ha; for plant injury at 31 g/ha: 31 g ai/ha; for plant injury at 62 g/ha: 62 g ai/ha
In short: as §1

[5] = test system: giant foxtail (Setaria faberi); assay: Test A pre/postemergence; conditions: Setaria faberi, 240 h, read-out: Plant response rating, Foxtail, Giant; for pest or weed control at 125 g/ha: 125 g ai/ha; for pest or weed control at 500 g/ha: 500 g ai/ha
In short: (§2)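 Soil: loam blended with sand. Formulation: non-phytotoxic solvent mixture with surfactant. Timing: preemergence soil spray plus concurrent postemergence spray (plants 2–10 cm, 1–2 leaves). Readout: visual injury versus untreated controls at ~10 days, 0–100.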

[6] = test system: redroot pigweed (Amaranthus retroflexus); assay: Test A pre/postemergence; conditions: Amaranthus retroflexus, 240 h, read-out: Plant response rating, Pigweed; for pest or weed control at 125 g/ha: 125 g ai/ha; for pest or weed control at 500 g/ha: 500 g ai/ha
In short: as §2

[7] = test system: barnyardgrass (Echinochloa crus-galli); assay: Test A pre/postemergence; conditions: Echinochloa crus-galli, 240 h, read-out: Plant response rating, Barnyardgrass; for pest or weed control at 125 g/ha: 125 g ai/ha; for pest or weed control at 500 g/ha: 500 g ai/ha
In short: as §2

[8] = test system: morningglory (Ipomoea spp.); assay: Test A pre/postemergence; conditions: Ipomoea, 240 h, read-out: Plant response rating, Morningglory; for pest or weed control at 125 g/ha: 125 g ai/ha; for pest or weed control at 500 g/ha: 500 g ai/ha
In short: as §2

[9] = test system: velvetleaf (Abutilon theophrasti); assay: Test A pre/postemergence; conditions: Abutilon theophrasti, 240 h, read-out: Plant response rating, Velvetleaf; for pest or weed control at 125 g/ha: 125 g ai/ha; for pest or weed control at 500 g/ha: 500 g ai/ha
In short: as §2

[10] = test system: crabgrass (Digitaria sanguinalis); assay: Test A pre/postemergence; conditions: Digitaria sanguinalis, 240 h, read-out: Plant response rating, Crabgrass; for pest or weed control at 125 g/ha: 125 g ai/ha; for pest or weed control at 500 g/ha: 500 g ai/ha
In short: as §2

[11] = post-emergence, Postemergence, read-out: Plant response rating (scale of 0 to 100), Bermudagrass
[12] = post-emergence, Postemergence, scale 0 to 100 (0 no effect, 100 complete control), read-out: Bermudagrass plant response rating
[13] = pre-emergence, Preemergence, scale 0 to 100, 0 no effect, 100 complete control, read-out: Plant response rating, Bermudagrass
[14] = post-emergence, Postemergence, read-out: Plant response rating (scale of 0 to 100), Foxtail, Giant
[15] = pre-emergence, Preemergence, scale 0 to 100, 0 no effect, 100 complete control, read-out: Plant response rating, Foxtail, Giant
[16] = post-emergence, Postemergence, read-out: Plant response rating (scale of 0 to 100), Johnsongrass
[17] = pre-emergence, Preemergence, scale 0 to 100, 0 no effect, 100 complete control, read-out: Plant response rating, Johnsongrass
[18] = post-emergence, Postemergence, read-out: Plant response rating (scale of 0 to 100), Soybean
[19] = pre-emergence, Preemergence, scale 0 to 100, 0 no effect, 100 complete control, read-out: Plant response rating, Soybean
[20] = post-emergence, Postemergence, 0 to 100 scale (0 no effect, 100 complete control)
[21] = pre-emergence, Preemergence, 0 to 100 scale where 0 is no effect and 100 is complete control, approximately ten days

Question: Which results are given for Nc1nc(-c2ccc(Cl)cc2)nc(C(=O)O)c1Cl [Compound 65, 6-amino-5-chloro-2-(4-chlorophenyl)-4-pyrimidinecarboxylic acid]?
Answer: pest or weed control at 16 g/ha [1, 11]: 60%; pest or weed control at 31 g/ha [1, 11]: 60%; pest or weed control at 62 g/ha [1, 12]: 70%; pest or weed control at 125 g/ha [1, 12]: 70%; pest or weed control at 16 g/ha [1, 13]: 0%; pest or weed control at 31 g/ha [1, 13]: 50%; pest or weed control at 62 g/ha [1, 13]: 70%; pest or weed control at 125 g/ha ([1]; pre-emergence, Preemergence, scale 0 to 100, read-out: Plant response rating, Bermudagrass): 80%; pest or weed control at 125 g/ha ([2]; post-emergence, Postemergence, scale 0 to 100 (0 no effect, 100 complete control), read-out: Foxtail, Giant plant response rating): 70%; pest or weed control at 16 g/ha [2, 14]: 50%; pest or weed control at 31 g/ha [2, 14]: 60%; pest or weed control at 62 g/ha [2, 14]: 70%; pest or weed control at 16 g/ha [2, 15]: 0%; pest or weed control at 31 g/ha [2, 15]: 10%; pest or weed control at 62 g/ha [2, 15]: 50%; pest or weed control at 125 g/ha ([2]; pre-emergence, Preemergence, scale 0 to 100, read-out: Plant response rating, Foxtail, Giant): 60%; pest or weed control at 16 g/ha [3, 16]: 45%; pest or weed control at 31 g/ha [3, 16]: 60%; pest or weed control at 62 g/ha [3, 16]: 85%; pest or weed control at 125 g/ha ([3]; post-emergence, Postemergence, scale 0 to 100 (0 no effect, 100 complete control), read-out: Johnsongrass plant response rating): 85%; pest or weed control at 16 g/ha [3, 17]: 0%; pest or weed control at 31 g/ha [3, 17]: 50%; pest or weed control at 62 g/ha [3, 17]: 60%; pest or weed control at 125 g/ha ([3]; pre-emergence, Preemergence, scale 0 to 100, read-out: Plant response rating, Johnsongrass): 70%; plant injury at 16 g/ha [4, 18]: 100%; plant injury at 31 g/ha [4, 18]: 100%; plant injury at 62 g/ha [4, 18]: 100%; plant injury at 125 g/ha ([4]; post-emergence, Postemergence, 125 g ai/ha, scale 0 to 100 (0 no effect, 100 complete control), read-out: Soybean plant response rating): 100%; plant injury at 16 g/ha [4, 19]: 85%; plant injury at 31 g/ha [4, 19]: 95%; plant injury at 62 g/ha [4, 19]: 95%; pest or weed control at 125 g/ha [5, 20]: 85%; pest or weed control at 500 g/ha [5, 20]: 95%; pest or weed control at 125 g/ha [5, 21]: 40%; pest or weed control at 500 g/ha [5, 21]: 80%; pest or weed control at 125 g/ha [6, 20]: 100%; pest or weed control at 500 g/ha [6, 20]: 100%; pest or weed control at 125 g/ha [6, 21]: 100%; pest or weed control at 500 g/ha [6, 21]: 100%; pest or weed control at 125 g/ha [7, 20]: 85%; pest or weed control at 500 g/ha [7, 20]: 85%; pest or weed control at 125 g/ha [7, 21]: 50%; pest or weed control at 500 g/ha [7, 21]: 90%; pest or weed control at 125 g/ha [8, 20]: 75%; pest or weed control at 500 g/ha [8, 20]: 95%; pest or weed control at 125 g/ha [8, 21]: 25%; pest or weed control at 500 g/ha [8, 21]: 90%; pest or weed control at 125 g/ha [9, 20]: 95%; pest or weed control at 500 g/ha [9, 20]: 100%; pest or weed control at 125 g/ha [9, 21]: 55%; pest or weed control at 500 g/ha [9, 21]: 95%; pest or weed control at 125 g/ha [10, 20]: 55%; pest or weed control at 500 g/ha [10, 20]: 80%; pest or weed control at 125 g/ha [10, 21]: 60%; pest or weed control at 500 g/ha [10, 21]: 90%

— patent publication US8802597B2, “Herbicidal pyrimidines” (E I du Pont de Nemours and Company, priority 2003, dated 2014)
